Values quoted from earlier work, collected in patent publication US20090148509A1, “ENCAPSULATION AND DEAGGREGATION OF POLYENE ANTIBIOTICS USING POLY(ETHYLENE GLYCOL)-PHOSPHOLIPID MICELLES” (WISCONSIN ALUMNI RESEARCH FOUNDATION, priority 2002, published 2009).

Assays:
[1] = surfactant:AmB

Molecule | molar ratio required to efficiently deaggregate AmB [1] | critical aggregation concentration of AmB in water
sodium deoxycholate | greater than 40 | 
C[C@@H]1[C@H](O)[C@@H](C)/C=C/C=C/C=C/C=C/C=C/C=C/C=C/[C@H](O[C@@H]2O[C@H](C)[C@@H](O)[C@H](N)[C@@H]2O)C[C@@H]2O[C@](O)(C[C@@H](O)C[C@@H](O)[C@H](O)CC[C@@H](O)C[C@@H](O)CC(=O)O[C@H]1C)C[C@H](O)[C@H]2C(=O)O [AmB, Amphotericin B] |  | about 1.0 μg/ml
